In US8193175B2, “Ruthenium complexes for treating cancers” (Universite de Strasbourg, priority 2004, dated 2012):
Entries after “also recorded” stand apart in the source; their conditions may differ.

What was measured:
MOLT-4 = test: Proliferation test (UptiBlue) on MOLT-4; type: cell-based, human; details: p53 expressing line; read-out: IC50, proliferation of MOLT-4 cells
Protocol: The products are tested on different cell lines. The cells used are RDM4 from a murine T lymphoma and a MOLT-4 line originating from an acute lymphoblastic leukemia. These cancer lines both express the p53 protein, unlike the HL-60 cells from a human promyelocytary leukemia where, following deletion of its gene, p53 is absent.
All of these cells are cultivated in RPMI 1640-Glutamax, supplemented by 10% calf foetal serum heat inactivated at 56° C. for 30 minutes, 1 mM sodium pyruvate, 1 mM non-essential amino acids and 50 μg/mL gentamycine (Life Technologies, Cergy Pontoise, France). The cultures are kept in an incubator at 37° C. with a moisture saturated atmosphere, with 5% CO2.
This test uses the UptiBlue reagent (Interchim, Montluçon, France), metabolised by the living cells. The cells are incubated on plates with 96 wells with 10^4 cells/well (200 μL) with the product and cultivated for 72 hours. Then, 20 μL UptiBlue are added to each well. After 3 hours incubation, the fluorescence of the samples contained in the plates is measured at 590 nm (excitation at 560 nm), using a Fluorolite 1000 microplate reader (Dynex technologies, Issy-Les-Moulineaux, France). […]

HCT116 cells = test: Western blot of p53, p21 and phospho-histone H3 in HCT116 cells; type: cell-based, human; details: 10 μM
Protocol: FIG. 5: Detection of p53, p21 and of the phosphorylation of histone H3 in the HCT116 cells treated with CDR. The HCT116 cells were treated with the various compounds (10 μM) and for the periods of time indicated (24 hrs or 6 hrs). The proteins were extracted with a lysis buffer and were separated on 10% SDS-Page gel. After being transferred onto nitrocellulose, the p53, p21 proteins and histone H3 were detected by Western blot using anti-p53 (pAb1801), anti-p21 (1/200, Oncogene) antibody and anti-phospho serine 10 of histone H3 (1/2000, Santacruz).
For the purpose of determining the molecular mechanisms used by the ruthenium derivatives and comparing them with those induced by cisplatinum, the expression of p53, p73 p21 and bax in the A172 and HCT116 lines was analysed.

[1] = system: 2008/CMV and 2008/ATP7B cells; test: MTT test on 2008/CMV and 2008/ATP7B cells; type: cell-based; details: 48 hrs
Protocol: FIG. 6: The 2008/CMV and 2008/ATP7B cells (contributed by Dr. Howell) were cultivated in plates with 96 wells in DMEM medium with 10% calf serum. At 30% confluence, the cells were treated for 48 hrs with cisplatinum or the various compounds derived from ruthenium in the concentrations indicated (1, 5, 15, 50 μM). The quantity of cells present in the wells was evaluated by an MTT (MTT, Sigma) test. The results obtained were related to the values of the control condition (100% viability). The graphs show an average of 8 points with the typical spacings over one experiment representative of 3 carried out. The thick black line indicates the IC50 for each graph.
One of these mechanisms is the overexpression of the copper export pump (ATP7B) which expels cisplatinum from the cell. It has been shown that this molecule is overexpressed in human tumours and that cell lines which overexpress this molecule are more resistant to cisplatinum and carboplatinum than control lines.
Two cell lines derived from 2008 cells (Katano, Safaei et al. 2003) were studied. One overexpresses the ATP7B pump, and the other only contains the control vector. The cytostatic activity of the cisplatinum and the CDR was tested in these two lines using the MTT test.

[2] = system: U-87 cells (a human glioblastoma); test: In vivo test, U-87 cells grafted onto nude/nude SWISS mice; details: 18.5 mg/Kg intraperitoneally per injection, accumulated dose 185 mg/Kg
Protocol: The animals are manipulated under a laminar flow hood. Ten nude/nude (athymic) eleven week old SWISS mice were grafted subcutaneously with U-87 cells (a human glioblastoma) on the left thigh. After 7 days, the tumours become apparent and treatment commences. The animals are separated into two groups of five, 5 mice are thus treated with D-PBS (control mice) and the 5 others with RDC-11 (treated mice).
For the treated mice, 2 mg of RDC-11 placed in solution in 4 mL hot D-PBS for each injection. 0.5 mL of this solution cooled down to ambient temperature is administered intraperitoneally to each mouse. For the control mice, 0.5 mL D-PBS at ambient temperature is administered in the same way.
The dose of RDC-11 injected is 18.5 mg/Kg mouse. The accumulated dose is therefore 185 mg/Kg.
The development of the apparent tumours was followed by measuring them with calipers, by weighing the mice and by scanning one mouse from each batch with a CT-scan after injecting a contrast product (Fenestra VC). The mice were individualised by a mark on the ear.
The volume of the apparent tumours was calculated according to the formula:
V=(4/3)*π*(L/2)*(I/2)^2 where L is the length and I the width measured.

[3] = Preliminary toxicity experiment on healthy SWISS mice; type: in vivo; details: small number of healthy SWISS mice

## N.N.[Cl][Pt][Cl] [Cisplatinum, reference compound]
MOLT-4
  IC50: < 500 nM
HCT116 cells
  increase in expression of p21 and inhibition of phosphorylation of histone H3: identical for CDR 6 and cisplatinum
[1]
  sensitivity of the line expressing ATP7B relative to the control line (MTT): significantly less sensitive

## [Ru(C6H4-2-C5H4N)(phen)(NCMe)2]PF6 [Compound 11]
[2]
  toxicity in grafted mice: without any toxicity
[2]; listed as RDC-11
  weight and volume of the tumours / tumoral growth: less in relation to the controls; also recorded: changes the nature of tumoral growth
[3]
  apparent toxicity: lack of apparent toxicity
